# Tests used:
# [1] = test system: Cuttings of Pelargonium interspecific: Calliope M Dark Red; test: Comparative trial of vacuum impregnation (VI) on unrooted Pelargonium cuttings: storage, rooting, losses, acceptability; format: in vivo; conditions: for % Losses after storage: stored at 8° C, losses before sticking; for % Losses / % Rooted / %Not rooted / % Acceptable YPL: 21 days after sticking; for % Acceptable YPL: YPL = young plant
# Excerpt: Comparative trials were made to investigate the effect of a method according to the present invention, that is a method preferably involving vacuum impregnation and which definitely is free from any PEF step, and a method involving a PEF step, either alone or together with an impregnation step, and of course also compared with untreated control(s). Cuttings of Pelargonium interspecific: Calliope M Dark Red was used as the testing material. When testing the method according to the second aspect of the present invention, the following vacuum impregnation parameters (protocol) were used: A pressure falling time of 10 minutes, a holding time of the obtained low pressure of 1 minute and then 15 minutes rising time when the pressure was increased again to atmospheric pressure. The minimum pressure was set at 220 mbar and trehalose 10% was used as the impregnation solution. For the PEF trial and step (not according to the present invention), the parameters used were the following: 500 V in continuous system, 250 µs pulse width and 50 PPV (pulses per volume), 0.3 KW. For the group of cuttings that was subjected only to vacuum impregnation, that is by a method according to the present invention, an additional rinsing step was also performed. Moreover, each group tested consisted of 80 unrooted cuttings, and not any repetitions were performed. When the pelargonium cuttings were received they were processed immediately. After the treatment, the groups were placed in perforated trays and kept inside slightly opened boxes. The boxes were stored 7 days at 8° C. After 7 days of storage the cuttings were evaluated and counted. The damaged (due to Botrytis), rotten or withered ones are removed. These are called losses before sticking. The rooting, losses and acceptability results were obtained 21 days after sticking. […] It should be noted that data for losses after storage were obtained after […] of storage.
# [2] = test system: Roses (variety: Athena); test: Vacuum impregnation on roses, appearance during vase storage at room temperature; format: in vivo; conditions: fructose 2-15 wt%, VI without PEF, versus untreated control
# Excerpt: Roses (variety: Athena) were purchased form a local distributor. The roses were transported from Kenya. The roses arrived at the test site 4 days after harvest.
# The treatment according to the present invention was applied to the roses immediately after the arrival. The roses were placed vertically in an impregnation solution, making sure that the flower bud was not immersed in the impregnation solution, thus only the stem and leaves were immersed. The impregnation solution contained sugar (fructose at a concentration of 2-15 wt%). Vacuum was applied reaching a minimum pressure range of 60 - 300 mbar, and with a total treatment time of about 12 minutes.
# To continue with the trial performed, after that the vacuum impregnation treatment was finished, the roses were taken out from the impregnation solution. They were then immersed in water, again excluding the flower buds, to wash the sugars from the surface and then placed in a cold room for 24 hours to recover. They were in this case not dried in any way.
# After 24 hours the roses were moved to room temperature in order to evaluate the results at the end user conditions. They were stored in a vase, with only the lower part of the stems immersed in water, and the water was renewed every two days.
# Roses were stored at room temperature for 13 days after the treatment (Right: roses treated according to the present invention, left: control roses, i.e. not treated).
Structure (SMILES),"% Losses after storage ([1]; No PEF, only VI (220 mbar)) [%]","% Losses ([1]; No PEF, only VI) [%]","% Rooted ([1]; No PEF, only VI) [%]","%Not rooted ([1]; No PEF, only VI) [%]","% Acceptable YPL ([1]; No PEF, only VI) [%]","% Losses after storage ([1]; VI + PEF (500 V, 250 µs, 50 PPV)) [%]",% Losses ([1]; VI + PEF) [%],% Rooted ([1]; VI + PEF) [%],%Not rooted ([1]; VI + PEF) [%],% Acceptable YPL ([1]; VI + PEF) [%],"general appearance of roses ([2]; stem and leaves immersed, 13 days at room temperature)",browning and wilting of the flower buds ([2]; room temperature storage),freshness of the treated leaves ([2]; room temperature storage)
"OC[C@H]1O[C@H](O[C@H]2O[C@H](CO)[C@@H](O)[C@H](O)[C@H]2O)[C@H](O)[C@@H](O)[C@@H]1O [Trehalose 10%, trehalose]",4,0,88,8,46,0,10,75,15,35,–,–,–
"O=C(CO)[C@@H](O)[C@H](O)[C@H](O)CO [sugar, fructose]",–,–,–,–,–,–,–,–,–,–,clear improvement,delayed,preserve freshness better
